{"source": "patent US20220105058A1", "about": "“USE OF 3-O-SULFAMATE-16,16-DIMETHYL-D-HOMOEQUILENIN TO TREAT ONCOLOGICAL DISEASES” (priority 2018, published 2022)", "key": {"[1]": {"system": "MCF-7 human cells culture (breast adenocarcinoma)", "test": "proliferation of passaged MCF-7 cell culture", "type": "cell-based", "description": "(§1) The study analysis was carried out on an passaged MCF-7 human cells culture culture (breast adenocarcinoma). Normal human dermal fibroblasts (HDF) of early passages were used as a negative control. The cells were cultivated in Carrel vials in DMEM/F12 medium (Biolot) with 1.0% of antibiotic-free fetal bovine embryonic serum (Biolot) added in the 5% CO2 atmosphere, at 37° C.\nThe cells were seeded on Carrel vials at 50×10^4 cells per flask. To study the proliferative activity of the cells under conditions of sulfatase inhibition, 24 hours after seeding the culture medium […], and then these tumor cell lines were incubated for various periods of time (24 to 72 hrs). The inhibitor was dissolved in DMSO. […] To exclude the cytotoxic effect of DMSO, a control sample comprising DMSO without sulfatase inhibitor was prepared. To exclude nonspecific detrimental effects of the compounds, normal human skin fibroblasts were used. Then the cells were detached with the versene-trypsin solution (Biolot), plated onto Carrel vials containing a fresh complete culture medium. The cells were counted when untreated control cells reached the maximum cell density per unit of surface area of a culture flask (monolayer), and their number was set as 100%. The proliferative activity of all of the studied cell cultures exposed to sulfatase inhibitors was determined in triplicate."}, "[2]": {"system": "uterine body without horns", "test": "uterine body weight (hormonal effect) on Day 28", "type": "in vivo, FVB mice transgenic for HER-2/neu", "settings": "for Uterine body weight: Day 28; for uterotropic activity / hormonal effect: mouse, in vivo", "description": "To estimate the hormonal effect of the medicament, the weight of uterine body without horns was measured on Day 28 of the observation period (Table 9)."}, "[3]": {"test": "cholesterol and triglycerides in blood serum (summary statement)"}, "[4]": {"system": "gastric adenocarcinoma SNU638", "test": "activity against SNU638", "type": "cell-based", "settings": "Homo sapiens, SNU-638"}, "lung cancer A549": {"system": "lung cancer A549", "test": "activity against A549", "type": "cell-based", "settings": "Homo sapiens"}, "[5]": {"system": "triple negative breast cancer MDA-MB-231 cell line", "test": "cell proliferation in MDA-MB-231", "type": "cell-based"}, "[6]": {"system": "hepatocellular carcinoma SK-Hep-1 cells", "test": "activity against SK-Hep-1 cells", "type": "cell-based", "settings": "Homo sapiens, SK-HEP1"}, "[7]": {"test": "acute oral toxicity, OECD 423 test", "settings": "for Lethal effects (dead/total): 14 days observation", "description": "LD50 of the medicament was determined in FVB mice transgenic for HER-2/neu using the OECD 423 test (OECD guideline for testing of chemicals. Acute Oral Toxicity-Acute Toxic Class Method).\n12 female mice were used in the experiment.\nAt the first step, 3 mice were given the medicament at a dose of 300 mg/kg. The study medicament was administered intragastrically (i.g.) using a metal atraumatic gavage (the procedure corresponds to the oral administration in clinical settings). […] The dosage form for administration was prepared ex tempore.\nThe animals were examined 2 times a day, clinically examined individually after the dose administration during the first 60 minutes, with special attention during the first 4 hours, periodically during the first 24 hours, on Day 2 and weekly for up to 14 days. Each animal was thoroughly examined in the housing cage in the observer's hands. The overall conditions of the animals were recorded, such as peculiarities in their behavior, intensity and nature of motor activity, fur and skin appearance.\nThe body weights of the animals were recorded using a verified high-speed electronic laboratory balance Ohaus Scout Pro (USA) with a maximum load of 2000 g and a measurement step of 0.1 g.\nOn Day 15, the animals were euthanized and undergone autopsy analysis with the registration of macroscopic changes. The data was collected in a special individual autopsy form.\nAll of the experimental animals were subject to pathomorphological examination at the end of the study. The euthanized animals were carefully examined for the external pathological changes. The chest and abdominal cavities were examined along with the macroscopic analysis of internal organs.\nWhen assessing the acute toxicity the animals were continuously observed for the first 60 minutes, and then examined every hour for 3 hours and further once in 24 hours. On the second day, the observation was carried out twice per day. Further the observations were made once per day. […] The animal was thoroughly examined in the housing cage in the observer's hands. The overall conditions of the animals were recorded, such as peculiarities in their behavior, intensity and nature of motor activity, fur and skin appearance."}, "[8]": {"system": "Normal human dermal fibroblasts (HDF)", "test": "growth of normal human skin fibroblasts (negative control)", "type": "cell-based", "settings": "concentration of 20 μg/ml", "description": "as §1\nThe cells were seeded on Carrel vials at 50×10^4 cells per flask. To study the proliferative activity of the cells under conditions of sulfatase inhibition, 24 hours after seeding the culture medium was […], and then these tumor cell lines were incubated for various periods of time (24 to 72 hrs). The inhibitor was dissolved in DMSO. […] To exclude the cytotoxic effect of DMSO, a control sample comprising DMSO without sulfatase inhibitor was prepared. To exclude nonspecific detrimental effects of the compounds, normal human skin fibroblasts were used. Then the cells were detached with the versene-trypsin solution (Biolot), plated onto Carrel vials containing a fresh complete culture medium. The cells were counted when untreated control cells reached the maximum cell density per unit of surface area of a culture flask (monolayer), and their number was set as 100%. The proliferative activity of all of the studied cell cultures exposed to sulfatase inhibitors was determined in triplicate."}, "endometrium": {"system": "endometrium", "test": "effects on the endometrium (summary statement)"}, "[9]": {"system": "chronic myelogenous leukemia cells (K562)", "test": "activity against K562", "type": "cell-based"}, "estrogen receptors": {"system": "estrogen receptors", "test": "study of binding to the estrogen receptors", "settings": "concentrations of −0.001 and 0.01, 0.1 and 1.0 μmol/ml"}}, "note": "“And” between values parts separate entries of the source, which are not always exact repeats. Identical values can stand only once. “Also recorded” adds a separate entry of the source. Like-named read-outs stand apart in the source and are kept apart here.", "data": [{"smiles": "CC/C(=C(\\c1ccccc1)c1ccc(OCCN(C)C)cc1)c1ccccc1", "note": "[Tamoxifen]", "values": [{"measurement": "proliferation of tumor MCF-7 cells", "setting": "[1]", "value": "inhibited to the same extent"}, {"measurement": "Uterine body weight", "setting": "[2]; Tamoxifen 4 mg/kg, All mice", "value": "28 ± 1", "unit": "mg"}, {"measurement": "Uterine body weight", "setting": "[2]; Tamoxifen 4 mg/kg, estrus (E-9)", "value": "28 ± 1", "unit": "mg"}]}, {"smiles": "CC1(C)CC(=O)[C@@]2(C)CCc3c(ccc4cc(OS(N)(=O)=O)ccc34)[C@@H]2C1", "note": "[medicament, 3-O-sulfamate-16,16-dimethyl-D-homoequilenin]", "values": [{"measurement": "proliferation of tumor MCF-7 cells", "setting": "[1]", "value": "completely inhibits proliferation"}, {"measurement": "proliferation of tumor MCF-7 cells", "setting": "[1]; concentration of 20 μg/ml", "value": "completely blocks the proliferation"}, {"measurement": "Uterine body weight", "setting": "[2]; medicament 20 mg/kg, All mice", "value": "27 ± 5", "unit": "mg"}, {"measurement": "Uterine body weight", "setting": "[2]; medicament 20 mg/kg, diestrus (D-7)", "value": "19 ± 3", "unit": "mg"}, {"measurement": "Uterine body weight", "setting": "[2]; medicament 20 mg/kg, estrus (E-3)", "value": "45 ± 7", "unit": "mg"}, {"measurement": "Uterine body weight", "setting": "[2]; medicament 100 mg/kg, All mice", "value": "26 ± 6", "unit": "mg"}, {"measurement": "Uterine body weight", "setting": "[2]; medicament 100 mg/kg, diestrus (D-8)", "value": "19 ± 4", "unit": "mg"}, {"measurement": "Uterine body weight", "setting": "[2]; medicament 100 mg/kg, estrus (E-2)", "value": "50 ± 10", "unit": "mg"}, {"measurement": "uterotropic activity / hormonal effect", "setting": "[2]", "value": "No significant differences; also recorded: no uterotropic activity"}, {"measurement": "uterotropic activity / hormonal effect", "setting": "[2]; listed as compound", "value": "absence of uterotropic activity"}, {"measurement": "effects on the content of triglycerides in blood serum", "setting": "[3]", "value": "absence of effects"}, {"measurement": "hypocholesterolemic activity", "setting": "[3]", "value": "hypocholesterolemic activity"}, {"measurement": "IC50", "setting": "[4]", "value": 22.8, "unit": "µM"}, {"measurement": "IC50", "setting": "lung cancer A549", "value": 29.6, "unit": "µM"}, {"measurement": "inhibition of cell proliferation", "setting": "[5]", "value": 83, "unit": "%"}, {"measurement": "IC50", "setting": "[6]", "value": 53.4, "unit": "µM"}, {"measurement": "signs of intoxication", "setting": "[7]; 300 mg/kg", "value": "None of the animals exhibited visual signs of intoxication"}, {"measurement": "Lethal effects (dead/total)", "setting": "[7]; 300 mg/kg i.g.", "value": "no animals died and no animals deaths were detected and 0/6"}, {"measurement": "average body weight", "setting": "[7]; 300 mg/kg, Day 1 (before administration)", "value": 28.1, "unit": "g"}, {"measurement": "body weight of individual mice", "setting": "[7]; 300 mg/kg, Day 1 (before administration), in g (unit assumed)", "value": "29.6 and 27.8 and 28.0 and 30.0 and 27.0 and 26.4"}, {"measurement": "average body weight", "setting": "[7]; 300 mg/kg, Day 2", "value": 28.1, "unit": "g"}, {"measurement": "average body weight, % from baseline", "setting": "[7]; 300 mg/kg, Day 2", "value": 0, "unit": "%"}, {"measurement": "body weight of individual mice", "setting": "[7]; 300 mg/kg, Day 2, in g (unit assumed)", "value": "29.2 and 27.4 and 27.8 and 30.4 and 27.2 and 26.8"}, {"measurement": "average body weight", "setting": "[7]; 300 mg/kg, Day 7", "value": 29.1, "unit": "g"}, {"measurement": "average body weight, % from baseline", "setting": "[7]; 300 mg/kg, Day 7", "value": 3, "unit": "%"}, {"measurement": "body weight of individual mice", "setting": "[7]; 300 mg/kg, Day 7, in g (unit assumed)", "value": "29.6 and 28.2 and 29.7 and 31.2 and 28.4 and 27.2"}, {"measurement": "average body weight", "setting": "[7]; 300 mg/kg, Day 14", "value": 29.5, "unit": "g"}, {"measurement": "average body weight, % from baseline", "setting": "[7]; 300 mg/kg, Day 14", "value": 5, "unit": "%"}, {"measurement": "body weight of individual mice", "setting": "[7]; 300 mg/kg, Day 14, in g (unit assumed)", "value": "30.2 and 29.0 and 30.6 and 31.1 and 28.6 and 27.6"}, {"measurement": "clinical signs of intoxication", "setting": "[7]; 2000 mg/kg", "value": "No clinical signs of intoxication were observed"}, {"measurement": "Lethal effects (dead/total)", "setting": "[7]; 2000 mg/kg i.g. in 2 steps", "value": "0/6"}, {"measurement": "average body weight", "setting": "[7]; 2000 mg/kg, Day 1 (before administration)", "value": 26.2, "unit": "g"}, {"measurement": "body weight of individual mice", "setting": "[7]; 2000 mg/kg, Day 1 (before administration), in g (unit assumed)", "value": "28.4 and 27.5 and 25.7 and 24.2 and 24.0 and 27.2"}, {"measurement": "average body weight", "setting": "[7]; 2000 mg/kg, Day 2", "value": 25.8, "unit": "g"}, {"measurement": "average body weight, % from baseline", "setting": "[7]; 2000 mg/kg, Day 2", "value": "−1", "unit": "%"}, {"measurement": "decrease in the average body weight from baseline", "setting": "[7]; 2000 mg/kg, Day 2", "value": 1, "unit": "%"}, {"measurement": "body weight of individual mice", "setting": "[7]; 2000 mg/kg, Day 2, in g (unit assumed)", "value": "28.0 and 26.8 and 25.3 and 24.4 and 23.8 and 26.4"}, {"measurement": "average body weight", "setting": "[7]; 2000 mg/kg, Day 7", "value": 25.7, "unit": "g"}, {"measurement": "average body weight, % from baseline", "setting": "[7]; 2000 mg/kg, Day 7", "value": "−2", "unit": "%"}, {"measurement": "decrease in the average body weight from baseline", "setting": "[7]; 2000 mg/kg, Day 7", "value": 2, "unit": "%"}, {"measurement": "body weight of individual mice", "setting": "[7]; 2000 mg/kg, Day 7, in g (unit assumed)", "value": "26.8 and 24.9 and 25.0 and 25.9 and 25.4 and 26.3"}, {"measurement": "average body weight", "setting": "[7]; 2000 mg/kg, Day 14", "value": 27, "unit": "g"}, {"measurement": "average body weight, % from baseline", "setting": "[7]; 2000 mg/kg, Day 14", "value": 3, "unit": "%"}, {"measurement": "body weight of individual mice", "setting": "[7]; 2000 mg/kg, Day 14", "value": "26.9 (2×) and 26.0 and 26.6 and 28.7 and 27.0"}, {"measurement": "macroscopic examination of internal organs at autopsy", "setting": "[7]; Day 15", "value": "did not reveal any pathological changes; also recorded: did not reveal any abnormalities"}, {"measurement": "hazard class / category", "setting": "[7]; mouse, in vivo", "value": "5th or non-classified category and 4th hazard class and 5th or unclassified category"}, {"measurement": "toxicity", "setting": "[7]; summary statement", "value": "absence of toxicity"}, {"measurement": "growth of human skin fibroblasts", "setting": "[8]", "value": "does not influence the growth"}, {"measurement": "negative effects on the endometrium", "setting": "endometrium", "value": "absence of negative effects"}, {"measurement": "activity against K562 cells", "setting": "[9]", "value": "active"}, {"measurement": "hormone activity", "setting": "estrogen receptors", "value": "lacks hormone activity"}]}]}
